Reference: patent publication US6949571B2, “1,2-dihydropyridine compounds, process for preparation of the same and use thereof” (Eisai Co., Ltd., priority 2000, dated 2005)

The compounds below were run on AMPA receptor. Conditions: Table 1; primary culture of rat embryo cerebral cortex nerve cells, 2 μM AMPA, 1 μM MK-801.
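Note: primary rat embryonic cortical neurons grown on an astrocyte layer in 96-well plates, used after at least 8 to 10 days in culture, Fura2-AM fluorescence ratio at 340/380 nm excitation.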
Experimental: Cerebral cortex was cut out from the brain of rat of gestational 18 days and treated with trypsin and DNase to disperse the cells. The cells were flown by MEM containing 10% of serum, sown in a culture bottle and astrocytes were proliferated. The astrocytes were re-dispersed by trypsin and sown in a 96-well plate. After incubation for one week, it was confirmed that the astrocytes covered all over the bottom and then the nerve cells of cerebral cortex which was dispersed by the above method were sown thereupon. After incubation for 24 hours, the medium was changed, the incubation was carried out for one week and, after that, the medium was changed to that containing 1 μM of MK-801. Nerve cells which were incubated for not shorter than 8 to 10 days were used.
Calcium influx into the cells was measured using Fura2-AM which was a calcium-sensitive fluorescent dye. It was treated in a medium containing Fura2-AM for 1 hour, incorporated into the cells, exchanged to a Tyrode solution containing 1 μM MK-801 and stimulation was carried out using 2 μM AMPA. Change in the amount of calcium flown into the cells were measured as the change in the fluorescent intensity at the exciting wave length of 340/380 nm.

Point of comparison: `N#Cc1ccccc1-c1cc(-c2ccco2)cn(-c2ccccc2)c1=O` [Example 49], IC50 200 nM. Against it:
- COc1cccc(-n2cc(-c3ccccn3)cc(-c3ccccc3Cl)c2=O)c1 [Example 74, 3-(2-Chlorophenyl)-5-(2-pyridyl)-1-(3-methoxyphenyl)-1,2-dihydropyridin-2-one] — the same, 200 nM
- N#Cc1ccccc1-c1cc(-c2ccccn2)cn(-c2cccc(CO)c2)c1=O [Example 21, 3-(2-Cyanophenyl)-5-(2-pyridyl)-1-(3-hydroxymethylphenyl)-1,2-dihydropyridin-2-one] — 6.7-fold lower, 30 nM
- COc1ccc(-c2cc(-c3ccccc3C#N)c(=O)n(-c3ccccc3)c2)cc1OC [Example 43, 3-(2-Cyanophenyl)-5-(3,4-dimethoxyphenyl)-1-phenyl-1,2-dihydropyridin-2-one] — 2.5-fold higher, 500 nM
- COc1ccccc1-c1cc(-c2ccccn2)cn(-c2cccnc2)c1=O [Example 129, 3-(2-Methoxyphenyl)-5-(2-pyridyl)-1-(3-pyridyl)-1,2-dihydropyridin-2-one] — 13-fold higher, 2600 nM
- O=c1c(-c2ccc(Cl)cc2)cc(-c2ccccn2)cn1-c1ccccc1 [Example 66, 3-(4-Chlorophenyl)-5-(2-pyridyl)-1-phenyl-1,2-dihydropyridin-2-one] — 12-fold higher, 2400 nM
- N#Cc1cccc(-n2cc(-c3ccccn3)cc(-c3ccccc3C#N)c2=O)c1 [Example 94, 3-(2-Cyanophenyl)-5-(2-pyridyl)-1-(3-cyanophenyl)-1,2-dihydropyridin-2-one] — 7.5-fold higher, 1500 nM
- N#Cc1ccccc1-c1cc(-c2ccccc2)cn(-c2ccccn2)c1=O [Example 39, 3-(2-Cyanophenyl)-5-phenyl-1-(2-pyridyl)-1,2-dihydropyridin-2-one] — 1.5-fold higher, 300 nM
- N#Cc1ccccc1-c1cc(-c2ccccn2)cn(-c2ccc(OCCOCc3ccccc3)nc2)c1=O [Example 114, 3-(2-Cyanophenyl)-5-(2-pyridyl)-1-(2-benzyloxyethoxypyridin-5-yl)-1,2-dihydropyridin-2-one] — 3-fold higher, 600 nM
- COc1ncccc1-c1cc(-c2ccccn2)cn(-c2ccccc2)c1=O [Example 81, 3-(2-Methoxy-3-pyridyl)-5-(2-pyridyl)-1-phenyl-1,2-dihydropyridin-2-one] — 14-fold higher, 2700 nM
- CCc1ccc(-n2cc(-c3ccccn3)cc(-c3ccccc3C#N)c2=O)cn1 [Example 124, 3-(2-Cyanophenyl)-5-(2-pyridyl)-1-(2-ethylpyridine-5-yl)-1,2-dihydropyridin-2-one] — 3.5-fold higher, 700 nM
- O=c1c(-c2ccsc2)cc(-c2ccccn2)cn1-c1cccnc1 [Example 133, 3-(Thiophen-3-yl)-5-(2-pyridyl)-1-(3-pyridyl)-1,2-dihydropyridin-2-one] — 1.5-fold higher, 300 nM
- COc1ccc(-n2cc(-c3ccccn3)cc(-c3ccccc3Cl)c2=O)cc1 [Example 17, 3-(2-Chlorophenyl)-5-(2-pyridyl)-1-(4-methoxyphenyl)-1,2-dihydropyridin-2-one] — 3.5-fold higher, 700 nM
- COc1ccccc1-c1cc(-c2ccccc2C#N)c(=O)n(-c2cccnc2)c1 [Example 52, 3-(2-Cyanophenyl)-5-(2-methoxyphenyl)-1-(3-pyridyl)-1,2-dihydropyridin-2-one] — 5.5-fold higher, 1100 nM
- O=c1c(-c2ccccc2Cl)cc(-c2ccccn2)cn1-c1ccc(O)cc1 [Example 18, 3-(2-Chlorophenyl)-5-(2-pyridyl)-1-(4-hydroxyphenyl)-1,2-dihydropyridin-2-one] — 10-fold lower, 20 nM
- COc1cccc(-c2cc(-c3ccccn3)cn(-c3ccccc3)c2=O)c1 [Example 69, 3-(3-Methoxyphenyl)-5-(2-pyridyl)-1-phenyl-1,2-dihydropyridin-2-one] — 4.5-fold higher, 900 nM
- Cc1cccc(-n2cc(-c3ccccn3)cc(-c3ccccc3C#N)c2=O)c1 [Example 103, 3-(2-Cyanophenyl)-5-(2-pyridyl)-1-(3-tolyl)-1,2-dihydropyridin-2-one] — 6.7-fold lower, 30 nM
- N#Cc1ccccc1-c1cc(-c2ccccn2)cn(-c2ccc(OCCO)nc2)c1=O [Example 119, 3-(2-Cyanophenyl)-5-(2-pyridyl)-1-(2-hydroxyethoxypyridin-5-yl)-1,2-dihydropyridin-2-one] — 8.5-fold higher, 1700 nM
- O=c1c(-c2cccnc2F)cc(-c2ccccn2)cn1-c1ccc(F)cc1 [Example 82, 3-(2-Fluoro-3-pyridyl)-5-(2-pyridyl)-1-(4-fluorophenyl)-1,2-dihydropyridin-2-one] — 4-fold higher, 800 nM
- CS(=O)(=O)c1ccc(-n2cc(-c3ccccn3)cc(-c3ccccc3C#N)c2=O)cc1 [Example 27, 3-(2-Cyanophenyl)-5-(2-pyridyl)-1-(4-methylsulfonylphenyl)-1,2-dihydropyridin-2-one] — 4-fold lower, 50 nM
- N#CCc1cccc(-n2cc(-c3ccccn3)cc(-c3ccccc3C#N)c2=O)c1 [Example 22, 3-(2-Cyanophenyl)-5-(2-pyridyl)-1-(3-cyanomethylphenyl)-1,2-dihydropyridin-2-one] — 3.3-fold lower, 60 nM

Same assay, conditions: Table 2; suppression of AMPA-induced calcium influx into nerve cells

Point of comparison: `Nc1ccc(-c2cc(-c3ccccn3)cn(-c3ccccc3)c2=O)cc1` [Example 221, 3-(4-Aminophenyl)-1-phenyl-5-(2-pyridyl)-1,2-dihydropyridin-2-one], IC50 7100 nM. Against it:
- N#Cc1ccccc1-c1cc(-c2ccccn2)cn(-c2cccc3ccccc23)c1=O [Example 291, 3-(2-Cyanophenyl)-5-(2-pyridyl)-1-(1-naphthyl)-1,2-dihydropyridin-2-one] — 51-fold lower, 140 nM
- O=c1c(Sc2ccc(Cl)cc2)cc(-c2ccccn2)cn1-c1ccccc1 [Example 188, 3-(4-Chlorophenylthio)-5-(2-pyridyl)-1-phenyl-1,2-dihydropyridin-2-one] — within 1.5-fold, 8500 nM
- N#CCc1ccc(-n2cc(-c3ccccn3)cc(-c3ccccc3C#N)c2=O)cc1 [Example 150, 3-(2-Cyanophenyl)-5-(2-pyridyl)-1-(4-cyanomethylphenyl)-1,2-dihydropyridin-2-one] — 24-fold lower, 300 nM
- O=c1c(-c2ccccc2CO)cc(-c2ccccn2)cn1-c1ccccc1 [Example 147, 3-(2-Hydroxymethylphenyl)-5-(2-pyridyl)-1-phenyl-1,2-dihydropyridin-2-one] — 4.4-fold lower, 1600 nM
- O=c1c(NC23CC4CC(CC(C4)C2)C3)cc(-c2ccccn2)cn1-c1ccccc1 [Example 176, 3-(1-Adamantylamino)-5-(2-pyridyl)-1-phenyl-1,2-dihydropyridin-2-one] — within 1.5-fold, 5400 nM
- CS(=O)(=O)Nc1cccc(-c2cc(-c3ccccn3)cn(-c3ccccc3)c2=O)c1 [Example 228, 3-[3-(Methanesulfonylamino)phenyl]-1-phenyl-5-(2-pyridyl)-1,2-dihydropyridin-2-one] — 2.6-fold lower, 2700 nM
- O=c1c(-c2ccc(Cl)nc2)cc(-c2ccccn2)cn1-c1ccccc1 [Example 287, 3-(2-Chloropyridin-5-yl)-5-(2-pyridyl)-1-phenyl-1,2-dihydropyridin-2-one] — within 1.5-fold, 5600 nM
- O=c1c(-c2cc3ccccc3n2S(=O)(=O)c2ccccc2)cc(-c2ccccn2)cn1-c1ccccc1 [Example 293, 3-[(1-Benzenesulfonyl)indol-2-yl]-1-phenyl-5-(2-pyridyl)-1,2-dihydropyridin-2-one] — 2.2-fold lower, 3300 nM
- NC(=O)c1ccccc1-c1cc(-c2ccccn2)cn(-c2ccccc2)c1=O [Example 140, 3-(2-Aminocarbonylphenyl)-5-(2-pyridyl)-1-phenyl-1,2-dihydropyridin-2-one] — within 1.5-fold, 6600 nM
- N#Cc1ccccc1-c1cc(-c2ncccc2N)cn(-c2ccccc2)c1=O [Example 216, 5-(3-Aminopyridin-2-yl)-3-(2-cyanophenyl)-1-phenyl-1,2-dihydropyridin-2-one] — 3-fold lower, 2400 nM
- Cc1ccc(-n2cc(-c3ccccn3)cc(-c3ccccc3C#N)c2=O)cc1N [Example 222, 3-(2-Cyanophenyl)-5-(2-pyridyl)-1-(2-aminotoluen-4-yl)-1,2-dihydropyridin-2-one] — 36-fold lower, 200 nM
- Cc1ccc(-c2cc(-c3ccccc3C#N)c(=O)n(-c3ccccc3)c2)nc1 [Example 196, 3-(2-Cyanophenyl)-5-(5-methylpyridin-2-yl)-1-phenyl-1,2-dihydropyridin-2-one] — 24-fold lower, 300 nM
- N#Cc1ccccc1-c1cc(-c2ccccn2)cn(-c2cccc(OCCCN3CCCCC3)c2)c1=O [Example 244, 3-(2-Cyanophenyl)-1-[3-(piperidinopropyloxy)phenyl]-5-(2-pyridyl)-1,2-dihydropyridin-2-one] — 3.9-fold lower, 1800 nM
- O=c1c(-c2cccc3cccnc23)cc(-c2ccccn2)cn1-c1ccccc1 [Example 282, 3-(8-Quinolinyl)-5-(2-pyridyl)-1-phenyl-1,2-dihydropyridin-2-one] — within 1.5-fold, 9000 nM

Same assay, conditions: Table 3; primary culture of rat embryo cerebral cortex nerve cells, 2 μM AMPA, 1 μM MK-801

Point of comparison: `O=c1c(-c2ccccc2-c2cnco2)cc(-c2ccccn2)cn1-c1ccccc1` [Example 392, 3-[2-(5-oxazolyl)phenyl]-1-phenyl-5-(2-pyridyl)-1,2-dihydropyridin-2-one], IC50 100 nM. Against it:
- O=c1c(-c2nc3ccc(Cl)cc3[nH]2)cc(-c2ccccn2)cn1-c1ccccc1 [Example 355, 3-(6-Chloro-1H-benzimidazol-2-yl)-5-(2-pyridyl)-1-phenyl-1,2-dihydropyridin-2-one] — 2-fold higher, 200 nM
- N#Cc1ccccc1Nc1cc(-c2ccccn2)cn(-c2ccccc2)c1=O [Example 321, 3-(2-Cyanophenylamino)-5-(2-pyridyl)-1-phenyl-1,2-dihydropyridin-2-one] — 40-fold higher, 4000 nM
- CC(=O)N1CCC(Oc2cccc(-n3cc(-c4ccccn4)cc(-c4ccccc4C#N)c3=O)c2)CC1 [Example 333, 1-[3-(N-acetylpiperidin-4-yl-oxy)phenyl]-3-(2-cyanophenyl)-5-(2-pyridyl)-1,2-dihydropyridin-2-one] — 3-fold higher, 300 nM
- N#Cc1ccccc1-c1cc(-c2ccccn2)cn(-c2cccc(O)c2)c1=O [Example 315, 3-(2-Cyanophenyl)-1-(3-hydroxyphenyl)-5-(2-pyridyl)-1,2-dihydropyridin-2-one] — within 1.5-fold, 80 nM
- N#Cc1ccccc1-c1cc(-c2nc3cccc4c3n2CCC4)cn(-c2ccccc2)c1=O [Example 358, 3-(2-Cyanophenyl)-5-(5,6-dihydro-4H-imidazo[4,5,1-i,j]quinolin-2-yl)-1-phenyl-1,2-dihydropyridin-2-one] — 14-fold higher, 1400 nM
- N#Cc1ccccc1-c1cc(-c2nc3ccccc3[nH]2)cn(-c2ccccc2)c1=O [Example 386, 3-(2-Cyanophenyl)-5-(1H-benzimidazol-2-yl)-1-phenyl-1,2-dihydropyridin-2-one] — 35-fold higher, 3500 nM
